In US20050244427A1, “Isolation and production of bioactive marine products” (priority 2004, published 2005):

System: Symbiodinium cells isolated from Eunicea fusca
Assay: Effect of plant growth factors on fuscol production in in vitro cultures of alga cells isolated from Eunicea fusca
Format: cell-based
Conditions: One hundred μM added for 48 hours after 24 hours in culture medium; compared with untreated control cells; RP HPLC, detection at 240 nm; FIG. 4
Method: FIG. 4 is a graph showing the induction of fuscol production in Symbiodinium cells isolated from Eunicea fusca with Methyl Jasmonate, Giberellic Acid and Salicyclic Acid.
Live Eunicea fusca was collected from Florida Keys. The tissue was homogenized in a blender using 50:50 DI/Filtered Seawater (FSW). The homogenate was strained into 50 mL Falcon tubes and centrifuged at 160×g for 5 minutes. The supernatant was discarded and the pellet was resuspended in 50:50 DI/FSW. The sample was centrifuged again, followed by three rounds of rinsing and centrifuging until the supernatant was clear. The cell pellet was layered over a Percoll gradient (30% and 70%) and centrifuged at 38×g for 10 minutes. Cells on the 30/70% interface were collected using a plastic pipet and rinsed two times in 50:50 DI/FSW water. Cells were examined by light microscopy to assess cell purity and to count the number of cells. 2.38×10^8 cells (500 μL) were removed from the sample and diluted to 2 mL with tris buffer (20 mM containing 3 mM EDTA, 5 mM MgCl2 and 5 mM β-mercaptoethanol). The sample was incubated with 1μ Ci ^3H-GGPP for 24 hrs at 29° C. and 180 RPM. The cells were centrifuged and the buffer was removed using a syringe and filtered into a scintillation vial. The cells were extracted with methylene chloride and ethyl acetate (8 times) followed by filtration into the scintillation vial containing the buffer. The crude extract was dried and weighed. The dried extract weighed 7.08 mg. The extract was partitioned between MeOH:H2O 9:1 and hexanes. The hexanes layer was dried and weighed. This layer weighed 4.77 mg. Water was added to make MeOH:H2O at a ratio of 1:1 and partitioned with methylene chloride. The CH2Cl2 layer was dried and weighed. This layer weighed 1.67 mg.
Referring to FIG. 4, the effect of growth factors on the production of fuscol in in vitro cultures of alga cells isolated from Eunicea fusca (as described above) was analyzed. […] The cells were then extracted and fuscol concentrations were determined by standard chromatographic methods (RP HPLC, detection at λ 240 nm).

SMILES | production of fuscol (fuscol concentration in extracted cells)
C=C1C[C@]23CC1(O)CC[C@H]2[C@@]12C=C[C@H](O)C(C)(C(=O)O1)[C@H]2[C@@H]3C(=O)O [giberellic acid] | Significantly more fuscol was produced
CC/C=C\CC1C(=O)CCC1CC(=O)OC (stereo not drawn) [methyl jasmonate] | Significantly more fuscol was produced
O=C(O)c1ccccc1O [salicyclic acid] | Significantly more fuscol was produced
